# Experimental data taken from US20210330611A1, “THERAPY FOR NEUROLOGICAL DISEASES/DISORDERS” (priority 2020, published 2021).
# Counter-ions that a name gives are not always drawn. Like-named read-outs stand apart in the source and are kept apart here.
# What was measured:
# [1] = tested on: LPS-induced microglia activation; assay: Image-based assay of LPS-induced microglia activation (HTS and dose response); format: cell-based, rat
# [2] = tested on: fibrin- and LPS-induced microglia activation; assay: cells; format: cell-based, rat; details: for inhibition at 10 µM: Rattus norvegicus, Microglia
# [3] = tested on: fibrin-induced microglia activation; assay: Image-based assay of fibrin-induced microglia activation (HTS and dose response); format: cell-based, rat; details: for inhibition at 10 µM / IC50: Rattus norvegicus, Microglia; for inhibition at 10 µM: read-out: Fibrin % inhibition
# [4] = Rattus norvegicus, Microglia, primary microglia HTS, LPS stimulation, compounds at 10 μM; read-out: LPS % inhibition
# [5] = primary microglia HTS, fibrin stimulation, compounds at 10 μM
# [6] = Rattus norvegicus, Microglia, 48 h, primary microglia HTS, LPS stimulation, activation = cell size >800 μm2; read-out: LPS % inhibition
# [7] = quadrant by fibrin and LPS inhibition in HTS of 1907 compounds
# [8] = primary microglia HTS, fibrin stimulation, activation = cell size >800 μm2
# [9] = Rattus norvegicus, Microglia, 48 h, read-out: LPS % inhibition
# [10] = quadrant by fibrin and LPS inhibition, HTS at 10 μM
# [11] = Rattus norvegicus, Microglia, 48 h, primary microglia HTS, LPS stimulation; increased cell size (>800 μm^2) as marker of activation; read-out: LPS % inhibition
# [12] = primary microglia HTS, fibrin stimulation, increased cell size (>800 μm^2) as marker of activation
# [13] = primary microglia HTS, LPS stimulation; increased cell size (>800 μm^2) as marker of activation
# [14] = Rattus norvegicus, Microglia, 48 h; read-out: LPS % inhibition
# [15] = classification by fibrin and LPS inhibition in HTS
# [16] = primary microglia HTS, fibrin stimulation, cell size >800 μm2 as marker of activation
smiles,measurement,setting,value
COc1cc([C@@H]2c3cc4c(cc3[C@@H](O[C@@H]3O[C@@H]5CO[C@@H](C)O[C@H]5[C@H](O)[C@H]3O)[C@H]3COC(=O)[C@H]23)OCO4)cc(OC)c1O [Etoposide],inhibition at 10 µM,[1]; [4],15%
same,Quadrant (FIG. 5b),"[2]; classification by fibrin and LPS inhibition, HTS at 10 μM",Q4
same,inhibition at 10 µM,[3]; [5],30%
same,LPS % cell toxicity,primary rat microglia; rat,0%
COCCCC/C(=N\OCCN)c1ccc(C(F)(F)F)cc1 [Fluvoxamine],inhibition at 10 µM,[1]; [6],-3%
same,Quadrant (FIG. 5b),[2]; [7],Q4
same,inhibition at 10 µM,[3]; [8],-8%
same,LPS % cell toxicity,primary rat microglia; rat,0%
"COc1ccc(Cl)cc1C(=O)NCCc1ccc(S(=O)(=O)NC(=O)NC2CCCCC2)cc1 [Glibenclamide, Glyburide]",LPS % inhibition,"[1]; primary microglia HTS, LPS stimulation, activation = cell size >800 μm2",8%
same,Quadrant (FIG. 5b),[2]; [7],Q4
same,Fibrin % inhibition,[3]; [8],−23%
same,LPS % cell toxicity,primary rat microglia,0%
NCCc1c[nH]cn1 [Histamine],inhibition at 10 µM,[1]; [9],27%
same,Quadrant (FIG. 5b),[2],Q4
same,inhibition at 10 µM,[3],21%
same,LPS % cell toxicity,primary rat microglia; rat,0%
NC(=O)NO [Hydroxyurea],inhibition at 10 µM,[1]; [6],25%
same,Quadrant (FIG. 5b),[2]; [7],Q4
same,inhibition at 10 µM,[3]; [8],1%
same,LPS % cell toxicity,primary rat microglia; rat,1%
O=P1(NCCCl)OCCCN1CCCl (stereo not shown) [Ifosfamide],inhibition at 10 µM,[1]; [6],10%
same,Quadrant (FIG. 5b),[2]; [7],Q4
same,inhibition at 10 µM,[3]; [8],-11%
same,LPS % cell toxicity,primary rat microglia; rat,0%
O=C1c2c(O)ccc(O)c2C(=O)c2c(NCCNCCO)ccc(NCCNCCO)c21 [Mitoxantrone],inhibition at 10 µM,[1]; [4],122%
same,Quadrant (FIG. 5b),[2]; [10],Q2
same,inhibition at 10 µM,[3]; [5],113%
same,LPS % cell toxicity,primary rat microglia; rat,40%
COCCOC(=O)C1=C(C)NC(C)=C(C(=O)OC(C)C)C1c1cccc([N+](=O)[O-])c1 (stereo not shown) [Nimodipine],inhibition at 10 µM,[1]; [11],2%
same,Quadrant (FIG. 5b),[2]; [7],Q4
same,inhibition at 10 µM,[3]; [12],-6%
same,LPS % cell toxicity,primary rat microglia; rat,0%
CCCCCCCCCCCCCCCC(=O)NCCO [Palmidrol],inhibition at 10 µM,[1]; [9],7%
same,Quadrant (FIG. 5b),[2],Q4
same,inhibition at 10 µM,[3],-40%
same,LPS % cell toxicity,primary rat microglia; rat,0%
CC(=O)O[C@H]1C[C@@H]2CC[C@@H]3[C@H](CC[C@@]4(C)[C@H]3C[C@H]([N+]3(C)CCCCC3)[C@@H]4OC(C)=O)[C@@]2(C)C[C@@H]1[N+]1(C)CCCCC1 [Pancuronium Bromide],LPS % inhibition,[1]; [13],11%
same,Quadrant (FIG. 5b),[2]; [7],Q4
same,Fibrin % inhibition,[3]; [12],9%
same,LPS % cell toxicity,primary rat microglia; rat,0%
CC(=O)O[C@H]1C[C@@H]2CC[C@@H]3[C@H](CC[C@@]4(C)[C@H]3C[C@H]([N+]3(C)CCCCC3)[C@@H]4OC(C)=O)[C@@]2(C)C[C@@H]1[N+]1(C)CCCCC1 [Pancuronium],LPS % inhibition,[1]; [13],1%
same,Quadrant (FIG. 5b),[2]; [7],Q4
same,Fibrin % inhibition,[3]; [12],−4%
same,LPS % cell toxicity,primary rat microglia; rat,0%
CC(C)(CO)[C@@H](O)C(=O)NCCC(=O)O [Pantothenic Acid],inhibition at 10 µM,[1]; [11],5%
same,Quadrant (FIG. 5b),[2]; [7],Q4
same,inhibition at 10 µM,[3]; [12],7%
same,LPS % cell toxicity,primary rat microglia; rat,1%
CCN1CCN(C(=O)N[C@@H](C(=O)N[C@@H]2C(=O)N3[C@@H]2SC(C)(C)[C@@H]3C(=O)O)c2ccccc2)C(=O)C1=O [Piperacillin Sodium],inhibition at 10 µM,[1]; [14],17%
same,Quadrant (FIG. 5b),[2]; [15],Q4
same,inhibition at 10 µM,[3]; [16],-25%
same,LPS % cell toxicity,primary rat microglia; rat,0%
CCN1CCN(C(=O)N[C@@H](C(=O)N[C@@H]2C(=O)N3[C@@H]2SC(C)(C)[C@@H]3C(=O)O)c2ccccc2)C(=O)C1=O [Piperacillin],inhibition at 10 µM,[1]; [4],80%
same,Quadrant (FIG. 5b),[2]; [10],Q2
same,inhibition at 10 µM,[3]; [5],103%
same,LPS % cell toxicity,primary rat microglia; rat,2%
CC(=O)Oc1cc2c(s1)CCN(C(C(=O)C1CC1)c1ccccc1F)C2 (stereo not shown) [Prasugrel],inhibition at 10 µM,[1]; [14],22%
same,Quadrant (FIG. 5b),[2]; [15],Q4
same,inhibition at 10 µM,[3]; [16],15%
same,LPS % cell toxicity,primary rat microglia; rat,1%
CC(C)c1cccc(C(C)C)c1O [Propofol],inhibition at 10 µM,[1]; [9],11%
same,Quadrant (FIG. 5b),[2],Q4
same,inhibition at 10 µM,[3],-18%
same,LPS % cell toxicity,primary rat microglia; rat,0%
CC(C)NCC(O)COc1cccc2ccccc12 (stereo not shown) [Propranolol],inhibition at 10 µM,[1]; [9],2%
same,Quadrant (FIG. 5b),[2],Q4
same,Fibrin % inhibition,[3],−30%
same,LPS % cell toxicity,primary rat microglia; rat,0%
OCCOCCN1CCN(C2=Nc3ccccc3Sc3ccccc32)CC1 [Quetiapine],inhibition at 10 µM,[1]; [9],13%
same,Quadrant (FIG. 5b),[2],Q4
same,inhibition at 10 µM,[3],-2%
same,LPS % cell toxicity,primary rat microglia; rat,0%
CCC1NC(=O)c2cc(S(N)(=O)=O)c(Cl)cc2N1 (stereo not shown) [Quinethazone],inhibition at 10 µM,[1]; [14],17%
same,Quadrant (FIG. 5b),[2]; [15],Q4
same,inhibition at 10 µM,[3]; [16],15%
same,LPS % cell toxicity,primary rat microglia; rat,1%
CNCC(O)c1ccc(O)c(O)c1 (stereo not shown) [Racepinephrine],inhibition at 10 µM,[1]; [9],29%
same,Quadrant (FIG. 5b),[2],Q4
same,inhibition at 10 µM,[3],27%
same,LPS % cell toxicity,primary rat microglia; rat,0%
CC(Cc1ccccc1)(NC(=O)CN)c1ccccc1 (stereo not shown) [Remacemide Hydrochloride],inhibition at 10 µM,[1]; [9],13%
same,Quadrant (FIG. 5b),[2],Q4
same,inhibition at 10 µM,[3],-21%
same,LPS % cell toxicity,primary rat microglia; rat,0%
"NC(=O)c1ncn([C@@H]2O[C@H](CO)[C@@H](O)[C@H]2O)n1 [Ribavirin, reference compound]",inhibition at 10 µM,[1]; [9],107%
same,IC50,"[1]; Rattus norvegicus, Microglia, 48 h, read-out: LPS IC50",2 µM
same,IC50,"[1]; Rattus norvegicus, Microglia, read-out: LPS IC50 (uM)",2 µM
same,IC50,"[1]; Rattus norvegicus, Microglia, read-out: LPS IC50 (uM) (Suppl. Table 7)",2 µM
same,Quadrant (FIG. 5b),[2],Q2
same,inhibition at 10 µM,[2]; read-out: Cherry-picked Hit (Suppl. Table 7),> 50%
same,inhibition at 10 µM,[2]; read-out: Hit,> 50%
same,IC50,"[3]; 48 h, read-out: Fibrin IC50",1 µM
same,inhibition at 10 µM,[3],102%
same,IC50,[3]; read-out: Fibrin IC50 (uM),1 µM
same,IC50,[3]; read-out: Fibrin IC50 (uM) (Suppl. Table 7),1 µM
same,LPS % cell toxicity,primary rat microglia; rat,3%
CCCN(CCC)CCc1cccc2c1CC(=O)N2 [Ropinirole],inhibition at 10 µM,[1]; [9],15%
same,Quadrant (FIG. 5b),[2],Q4
same,inhibition at 10 µM,[3],-26%
same,LPS % cell toxicity,primary rat microglia; rat,0%
"CCCc1nn(C)c2c(=O)[nH]c(-c3cc(S(=O)(=O)N4CCN(C)CC4)ccc3OCC)nc12 [Sildenafil, Sildenafil Citrate]",LPS % inhibition,[1],20%
same,Quadrant (FIG. 5b),[2]; [15],Q4
same,Fibrin % inhibition,[3]; [16],22%
same,LPS % cell toxicity,primary rat microglia,0%
O=C(O[C@H]1CN2CCC1CC2)N1CCc2ccccc2[C@@H]1c1ccccc1 [Solifenacin Succinate],inhibition at 10 µM,[1]; [14],-4%
same,Quadrant (FIG. 5b),[2]; [15],Q4
same,inhibition at 10 µM,[3]; [16],-2%
same,LPS % cell toxicity,primary rat microglia; rat,0%
C1CCN2C[C@@H]3C[C@@H](CN4CCCC[C@@H]34)[C@H]2C1 [Sparteine Sulfate],inhibition at 10 µM,[1]; [14],20%
same,Quadrant (FIG. 5b),[2]; [15],Q4
same,inhibition at 10 µM,[3]; [16],7%
same,LPS % cell toxicity,primary rat microglia; rat,0%
"CSc1ccc2c(c1)N(CCC1CCCCN1C)c1ccccc1S2 (stereo not shown) [Thioridazine hydrochloride, reference compound]",inhibition at 10 µM,[1]; [9],118%
same,Activity,[2],fib/LPS
same,Quadrant (FIG. 5b),[2],Q2
same,inhibition at 10 µM,[3],116%
same,LPS % cell toxicity,primary rat microglia; rat,73%
Cc1ccc(O)c([C@H](CCN(C(C)C)C(C)C)c2ccccc2)c1 [Tolterodine],inhibition at 10 µM,"[1]; Rattus norvegicus, Microglia, read-out: LPS % inhibition",15%
same,Quadrant (FIG. 5b),[2],Q4
same,inhibition at 10 µM,[3],-36%
same,LPS % cell toxicity,primary rat microglia; rat,0%
